Data as given in patent US20190352329A1, “BETA-ADRENERGIC BLOCKING COMPOUND” (KING SAUD UNIVERSITY, priority 2018, published 2019).

Experiments:
beta adrenergic receptor = beta adrenergic receptor (Cavia porcellus, UniProt H0W3H1); assay: Blockade of isoprenaline inotropic effect in electrically driven guinea pig left atrium; format: cell-based; details: result in words
Text: Data are expressed as means±s. e. mean. IC50s for each drug were estimated through non-linear regression analysis using ISI software for a PC computer. Differences between non paired groups were compared by Student's t-test or ANOVA test with the statistical programme Stat works TM; a value of P equal or smaller than 0.05 was taken as the limit of statistical significance.
To test beta adrenergic receptor blocking effects of compounds 3a and 3b, their actions on the inotropic effects of the beta receptor agonist isoprenaline of the guinea pig left atrium were studied.
Male guinea-pigs weighing 300±400 g were killed by a blow on the head. The heart was quickly removed and placed in oxygenated Krebs-bicarbonate solution. The left atrium was carefully dissected and placed between bipolar platinum electrodes. The base of the atrium was tied to one of the electrodes and the tip to an isometric transducer connected to an amplifier and recorder (Cibertec, Madrid, Spain), with 1 g baseline tension. […]
This concentration was selected because it produced a submaximal and measurable inotropic effect that was reproducible after 7^−1° additions of isoprenaline, given at 30-min intervals. […] Each individual preparation served to provide a full concentration-response curve for a given compound, and from it IC50 was calculated.

[1] = 6-week application, daily dose of 60 mg/kg b.w., i.p.; cited from earlier work

Sequence of beta adrenergic receptor (H0W3H1 1-470): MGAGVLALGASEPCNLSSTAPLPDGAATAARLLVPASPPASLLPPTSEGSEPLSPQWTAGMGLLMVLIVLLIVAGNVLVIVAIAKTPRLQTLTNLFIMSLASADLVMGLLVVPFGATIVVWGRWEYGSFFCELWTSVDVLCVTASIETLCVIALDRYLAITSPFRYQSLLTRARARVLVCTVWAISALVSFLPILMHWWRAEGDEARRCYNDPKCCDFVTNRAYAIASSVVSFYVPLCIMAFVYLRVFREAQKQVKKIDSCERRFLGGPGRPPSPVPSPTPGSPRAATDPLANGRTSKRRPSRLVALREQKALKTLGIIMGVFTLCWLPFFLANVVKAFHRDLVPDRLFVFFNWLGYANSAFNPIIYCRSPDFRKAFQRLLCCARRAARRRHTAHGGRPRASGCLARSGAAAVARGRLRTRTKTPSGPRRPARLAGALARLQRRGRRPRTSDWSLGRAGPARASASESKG

Row | SMILES | blockade of the isoprenaline inotropic response (beta adrenergic receptor) | direct cardiac effect (heart rate decrease) [1] [%]
1 | COC(=O)C12CCC(C)C(C)C1C1=CCC3C4(C)CCC(OCC(O)CNC(C)C)C(C)(C)C4CCC3(C)C1(C)CC2 (stereo not drawn) [Compound 3a, methyl 3-β-[2-hydroxy-3-(isopropylamino)propoxy]-urs-12-en-28-oate] | blocked the isoprenaline inotropic response almost fully | –
2 | COC(=O)C12CCC(C)C(C)C1C1=CCC3C4(C)CCC(OCC(O)CNCC(C)C)C(C)(C)C4CCC3(C)C1(C)CC2 (stereo not drawn) [Compound 3b, methyl-3-β-[2-hydroxy-3-(isobutylamino)propoxy]-urs-12-en-28-oate] | blocked the isoprenaline inotropic response almost fully | –
3 | CC1(C)CC[C@]2(C(=O)O)CC[C@]3(C)C(=CC[C@@H]4[C@@]5(C)CC[C@H](O)C(C)(C)[C@@H]5CC[C@]43C)[C@@H]2C1 [Oleanolic] | – | 34
